{"source": "paper doi:10.1101/2025.03.31.646301v1", "about": "“Discovery of Tankyrase scaffolding inhibitor specifically targeting the ARC4 peptide binding domain” (biorxiv, 2025)", "key": {"TNKS2 ARC4 [1]": {"target": "T1, TNKS2 ARC4 (Homo sapiens, UniProt Q9H2K2)", "T1 construct": "ankyrin repeat cluster 4 domain; FRET: 6xHis-mCerulean (CFP) fusion; DSF, NMR, crystal: MBP and His tag cleaved by TEV, residues 487-649 printed for crystal; E. coli BL21(DE3)", "T1 sequence (Q9H2K2 487-649)": "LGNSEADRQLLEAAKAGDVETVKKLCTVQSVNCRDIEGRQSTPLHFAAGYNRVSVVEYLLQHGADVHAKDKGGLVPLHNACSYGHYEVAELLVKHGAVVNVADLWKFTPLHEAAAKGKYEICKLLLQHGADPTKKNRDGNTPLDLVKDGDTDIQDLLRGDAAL", "experiment": "FRET displacement of YFP-REAGDGEE peptide from CFP-ARC", "format": "binding"}, "TNKS2 ARC1": {"target": "T2, TNKS2 ARC1 (Homo sapiens, UniProt Q9H2K2)", "T2 construct": "ankyrin repeat cluster 1 domain, 6xHis-mCerulean (CFP) fusion, E. coli", "T2 sequence (Q9H2K2 21-174 limits assumed)": "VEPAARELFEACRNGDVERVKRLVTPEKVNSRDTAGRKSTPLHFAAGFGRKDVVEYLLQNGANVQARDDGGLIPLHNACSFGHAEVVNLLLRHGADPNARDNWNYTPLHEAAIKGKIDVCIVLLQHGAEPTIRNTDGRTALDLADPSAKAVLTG", "experiment": "FRET displacement of YFP-REAGDGEE peptide from CFP-ARC", "format": "binding", "from_the_text": "FRET displacement of YFP-REAGDGEE peptide from CFP-ARC on TNKS2 ARC1"}, "TNKS1 ARC4": {"target": "T3, TNKS1 ARC4 (Homo sapiens, UniProt O95271)", "T3 construct": "gene TNKS; ankyrin repeat cluster 4 domain, 6xHis-mCerulean (CFP) fusion, E. coli", "T3 sequence (O95271 649-806 limits assumed)": "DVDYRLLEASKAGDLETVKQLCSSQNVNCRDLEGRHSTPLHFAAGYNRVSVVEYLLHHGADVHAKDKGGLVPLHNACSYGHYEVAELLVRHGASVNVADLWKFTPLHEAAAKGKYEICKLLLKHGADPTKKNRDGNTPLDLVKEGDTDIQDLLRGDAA", "experiment": "FRET displacement of YFP-REAGDGEE peptide from CFP-ARC", "format": "binding", "from_the_text": "FRET displacement of YFP-REAGDGEE peptide from CFP-ARC on TNKS1 ARC4"}, "TNKS1 ARC5": {"target": "T4, TNKS1 ARC5 (Homo sapiens, UniProt O95271)", "T4 construct": "gene TNKS; ankyrin repeat cluster 5 domain, 6xHis-mCerulean (CFP) fusion, E. coli", "T4 sequence (O95271 806-966 limits assumed)": "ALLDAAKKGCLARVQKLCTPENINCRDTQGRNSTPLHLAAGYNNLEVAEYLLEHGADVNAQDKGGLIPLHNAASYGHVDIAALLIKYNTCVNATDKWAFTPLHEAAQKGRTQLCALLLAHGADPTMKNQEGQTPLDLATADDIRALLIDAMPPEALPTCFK", "experiment": "FRET displacement of YFP-REAGDGEE peptide from CFP-ARC", "format": "binding", "from_the_text": "FRET displacement of YFP-REAGDGEE peptide from CFP-ARC on TNKS1 ARC5"}, "TNKS1 ARC1": {"target": "T5, TNKS1 ARC1 (Homo sapiens, UniProt O95271)", "T5 construct": "gene TNKS; ankyrin repeat cluster 1 domain, 6xHis-mCerulean (CFP) fusion, E. coli", "T5 sequence (O95271 173-336 limits assumed)": "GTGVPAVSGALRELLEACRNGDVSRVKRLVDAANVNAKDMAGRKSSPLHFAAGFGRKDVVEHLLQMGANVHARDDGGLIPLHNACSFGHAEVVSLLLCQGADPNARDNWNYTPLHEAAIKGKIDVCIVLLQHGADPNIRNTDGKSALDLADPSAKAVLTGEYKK", "experiment": "FRET displacement of YFP-REAGDGEE peptide from CFP-ARC", "format": "binding", "from_the_text": "FRET displacement of YFP-REAGDGEE peptide from CFP-ARC on TNKS1 ARC1"}, "TNKS2 ARC4 [2]": {"target": "T1, TNKS2 ARC4", "parameters": "DSF thermal shift of TNKS2 ARC4, stabilization over DMSO control", "details": "binder", "from_the_text": "Given the notable stabilization of the pyrrolone-based compounds from the Commercials Diversity collection, we decided to focus on their common scaffold for compound optimization. Pyrrolone is indeed a versatile moiety that is largely employed for the design of compounds with a variety of biological effects.[55] The nine primary hits were acquired from commercial suppliers, they underwent quality control, additional DSF validation and determination of potency through FRET-based IC50 measurements (Table 1). All the tested compounds include a benzodioxane moiety (R[1]), a [compound left out] group with substitutions in the para position (R[2]), and an R[3] group with an aliphatic character and a tertiary amine. […] In addition, all molecules, except for 7, have IC50 values below 100 µM. Among the nine molecules, 1 performed the best in terms of stabilization of TNKS2 ARC4 and potency. […] In the same position, the presence of a hydrophobic methyl group (3, 4), other halogen substituents (5) and alkoxy groups (6–9) is also tolerated, even if not optimal. […] A SAR investigation was conducted with purchased and synthesized analogues of 1 through FRET-based potency measurements and DSF assay with TNKS2 ARC4 (Table 2, Table S2). All the compounds commercially acquired underwent quality control. […] Changes to the length of the aliphatic chain at R[3] greatly impacts both potency and protein stabilization. […] The diethylamino-based substituent at R[3] […] Compounds 25 and 26 further indicate that the presence of tertiary amine at R[3] is not necessary to achieve binding. […] 5 Figure S2. DSF assay results for validation of primary hits identified in the EU-OPENSCREEN Commercials Diversity Library. (A) and (B) show DSF assay validation measurements of TNKS2 ARC4 with primary hits from the Commercial Diversity Library. Compounds are tested at 100 μM. They are named after their EU-OPENSCREEN identity codes and the identities are available for consultation on ECBD. 1,2 (A) and (B) show results from two independent experiments. For each experiment, each compound was tested with a single measurement, while controls (TNKS2 ARC4 with 100 μM optimized peptide, TNKS2 ARC4 with 100 μM DMSO) are studied in at least four replicates and errors are shown. Moreover, stabilization over the control (TNKS2 ARC4 with DMSO) is indicated (ΔTm °C). […] It was not possible to measure the melting curve of TNKS2 ARC4 in presence of EOS21552, EOS54043, EOS54043."}, "TNKS2 ARC5": {"target": "T6, TNKS2 ARC5 (Homo sapiens, UniProt Q9H2K2)", "T6 construct": "ankyrin repeat cluster 5 domain, 6xHis-mCerulean (CFP) fusion, E. coli", "T6 sequence (Q9H2K2 646-800 limits assumed)": "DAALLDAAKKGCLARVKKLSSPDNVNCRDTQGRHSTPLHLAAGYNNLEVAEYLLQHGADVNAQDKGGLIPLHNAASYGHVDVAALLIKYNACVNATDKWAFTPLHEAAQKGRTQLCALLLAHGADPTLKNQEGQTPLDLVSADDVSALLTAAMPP", "experiment": "FRET displacement of YFP-REAGDGEE peptide from CFP-ARC", "format": "binding", "from_the_text": "FRET displacement of YFP-REAGDGEE peptide from CFP-ARC on TNKS2 ARC5"}, "TNKS1 ARC2-3": {"target": "T7, TNKS1 ARC2-3 (Homo sapiens, UniProt O95271)", "T7 construct": "gene TNKS; ankyrin repeat clusters 2-3, 6xHis-mCerulean (CFP) fusion, E. coli", "T7 sequence (O95271 336-649 limits assumed)": "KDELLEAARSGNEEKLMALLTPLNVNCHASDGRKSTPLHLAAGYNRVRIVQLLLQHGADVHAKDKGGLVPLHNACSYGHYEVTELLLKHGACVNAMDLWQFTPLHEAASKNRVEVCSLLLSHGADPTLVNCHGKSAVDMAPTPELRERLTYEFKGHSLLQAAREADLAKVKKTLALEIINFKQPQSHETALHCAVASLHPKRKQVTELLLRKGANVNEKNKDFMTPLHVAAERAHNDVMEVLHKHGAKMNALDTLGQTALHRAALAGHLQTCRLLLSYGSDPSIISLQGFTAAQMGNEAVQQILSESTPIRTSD", "experiment": "FRET displacement of YFP-REAGDGEE peptide from CFP-ARC", "format": "binding", "from_the_text": "FRET displacement of YFP-REAGDGEE peptide from CFP-ARC on TNKS1 ARC2-3"}, "TNKS2 ARC2": {"target": "T8, TNKS2 ARC2 (Homo sapiens, UniProt Q9H2K2)", "T8 construct": "ankyrin repeat cluster 2 domain, 6xHis-mCerulean (CFP) fusion, E. coli", "T8 sequence (Q9H2K2 173-329 limits assumed)": "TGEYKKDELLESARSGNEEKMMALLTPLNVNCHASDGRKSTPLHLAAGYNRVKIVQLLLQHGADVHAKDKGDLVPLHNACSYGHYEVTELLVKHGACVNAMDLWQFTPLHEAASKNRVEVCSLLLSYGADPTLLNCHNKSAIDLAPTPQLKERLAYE", "experiment": "FRET displacement of YFP-REAGDGEE peptide from CFP-ARC", "format": "binding", "from_the_text": "FRET displacement of YFP-REAGDGEE peptide from CFP-ARC on TNKS2 ARC2"}, "TNKS2 ARC4 [3]": {"target": "T1, TNKS2 ARC4", "experiment": "X-ray co-crystal structure", "format": "binding", "details": "residues 487-649, tag-free, pH 4.2; S enantiomer in TBM pocket, R enantiomer at crystal contacts"}}, "note": "pIC50: −log10 of the molar value.", "data": [{"compound": "Cc1ccc(C2C(C(=O)c3ccc4c(c3)OCCO4)=C(O)C(=O)N2CCCN2CCOCC2)cc1", "note": "(stereo not drawn) [compound 4, 4]", "values": [{"measurement": "pIC50", "setting": "TNKS2 ARC4 [1]", "value": 4.11}, {"measurement": "pIC50", "setting": "TNKS2 ARC1", "value": "< 3.00"}, {"measurement": "pIC50", "setting": "TNKS1 ARC4", "value": 3.92}, {"measurement": "pIC50", "setting": "TNKS1 ARC5", "value": "< 3.00"}, {"measurement": "pIC50", "setting": "TNKS1 ARC1", "value": "< 3.00"}, {"measurement": "ΔTm ± SD (°C)", "setting": "TNKS2 ARC4 [2]", "value": "2.19 ± 0.31", "unit": "°C"}, {"measurement": "pIC50", "setting": "TNKS2 ARC5", "value": "< 3.00"}, {"measurement": "pIC50", "setting": "TNKS1 ARC2-3", "value": "< 3.00"}, {"measurement": "pIC50", "setting": "TNKS2 ARC2", "value": "< 3.00"}]}, {"compound": "CCN(CC)CCCN1C(=O)C(O)=C(C(=O)c2ccc3c(c2)OCCO3)C1c1ccc(O)cc1", "note": "(stereo not drawn) [compound 1, 1]", "values": [{"measurement": "pIC50", "setting": "TNKS2 ARC4 [1]", "value": 4.80}, {"measurement": "pIC50", "setting": "TNKS2 ARC1", "value": "< 3.00"}, {"measurement": "pIC50", "setting": "TNKS1 ARC4", "value": 4.74}, {"measurement": "pIC50", "setting": "TNKS1 ARC5", "value": "< 3.00"}, {"measurement": "pIC50", "setting": "TNKS1 ARC1", "value": "< 3.00"}, {"measurement": "pIC50", "setting": "TNKS2 ARC5", "value": "< 3.00"}, {"measurement": "pIC50", "setting": "TNKS1 ARC2-3", "value": "< 3.00"}, {"measurement": "pIC50", "setting": "TNKS2 ARC2", "value": "< 3.00"}]}, {"compound": "COc1ccc(C2C(C(=O)c3ccc4c(c3)OCCO4)=C(O)C(=O)N2CCCN2CCOCC2)cc1", "note": "(stereo not drawn) [compound 6, 6]", "values": [{"measurement": "pIC50", "setting": "TNKS2 ARC4 [1]", "value": 4.09}, {"measurement": "pIC50", "setting": "TNKS2 ARC1", "value": "< 3.00"}, {"measurement": "pIC50", "setting": "TNKS1 ARC4", "value": 3.91}, {"measurement": "pIC50", "setting": "TNKS1 ARC5", "value": "< 3.00"}, {"measurement": "pIC50", "setting": "TNKS1 ARC1", "value": "< 3.00"}, {"measurement": "ΔTm ± SD (°C)", "setting": "TNKS2 ARC4 [2]", "value": "1.81 ± 0.31", "unit": "°C"}, {"measurement": "pIC50", "setting": "TNKS2 ARC5", "value": "< 3.00"}, {"measurement": "pIC50", "setting": "TNKS1 ARC2-3", "value": "< 3.00"}, {"measurement": "pIC50", "setting": "TNKS2 ARC2", "value": "< 3.00"}]}, {"compound": "CCC(CC)CCCN1C(=O)C(O)=C(C(=O)c2ccc3c(c2)OCCO3)[C@@H]1c1ccc(O)cc1", "note": "[S8]", "values": [{"measurement": "pIC50", "setting": "TNKS1 ARC4", "value": 5.05}, {"measurement": "pIC50", "setting": "TNKS1 ARC5", "value": "< 3.00"}, {"measurement": "pIC50", "setting": "TNKS1 ARC1", "value": "< 3.00"}, {"measurement": "ΔTm ± SD (°C)", "setting": "TNKS2 ARC4 [2]", "value": "2.44 ± 0.12", "unit": "°C"}, {"measurement": "X-ray co-crystal structure", "setting": "TNKS2 ARC4 [3]", "value": "we co-crystallized the compound displaying the best potency (S8) with TNKS2 ARC4"}, {"measurement": "pIC50", "setting": "TNKS1 ARC2-3", "value": "< 3.00"}, {"measurement": "pIC50", "setting": "TNKS2 ARC2", "value": "< 3.00"}]}]}
